Like-named read-outs stand apart in the source and are kept apart here.
Assays:
TGR12 = type: cell-based, human; conditions: for EC50: CHO-TGR12, read-out: EC50 in the calcium increasing effect on CHO-TGR12
Procedure: CHO/dhfr^− cells (hereinafter CHO) were incubated in α-MEM (Invitrogen) supplemented with 10% fetal calf serum. After a termination codon in the TGR12-encoding nucleotide sequence was removed, a nucleotide sequence ligated with the nucleotide sequence encoding GFP (Wako Pure Chemical) [hereinafter briefly referred to as TGR12-GFP (DNA having the nucleotide sequence represented by SEQ ID NO: 31)] was incorporated into vector plasmid pAKKO-111H (the same vector plasmid as pAKKO1.11H described in Biochim. Biophys. Acta, 1219, 251-259 (1994)) for animal cell expression, and the vector plasmid was stably expressed to establish TGR12-GFP-expressed CHO cell line (hereinafter CHO-TGR12). CHO-TGR12 was incubated in nucleic acid-free α-MEM medium (Invitrogen) containing 10% dialyzed fetal calf serum.
CHO-TGR12 was plated in a 96-well plate at a density of 30,000 cells/well. After incubation overnight, the medium was discarded and 100 μL/well of assay buffer [Hank's Balanced Salt Solution (Invitrogen), 20 mM HEPES (Dojin Chemical Laboratory) and 2.5 mM Probenecid (Sigma)] containing 4 μM Fluo3-AM (Dojin Chemical Laboratory) was added, which was then allowed to stand for an hour at 37° C. […] After the cells were washed with assay buffer, fluorescence reflecting changes in intracellular calcium levels was assayed on FLIPR (Molecular Device). Ten seconds after initiation of the assay, 50 μL of a sample was added at a rate of 50 μL/second. Fluorescence measurement was taken every 1 second during the first 60 seconds and then every 6 seconds during the next 120 seconds; the highest fluorescence intensity over a 3 minute period was taken as the maximum activity under the stimulation condition, representing the mean value of 3 wells. The EC50 values were determined using Graphpad PRISM 4 (Graphpad Software).

[1] = tested on: human mast cell line LAD 2; assay: TGR12 ligand-dependent degranulation of LAD 2 (β-hexosaminidase release); type: cell-based
Procedure: Human mast cell line LAD 2 was incubated in StemPro-34 medium (Invitrogen) supplemented with 100 ng/mL of stem cell factor (Immuno-Biological Laboratories Co., Ltd.). […] Subsequently, Tyrode's buffer containing 50 μL of TGR12 ligand (Peptide Institute, Inc.) in various concentrations was added and incubation was continued at 37° C. for further 20 minutes to induce degranulation. The degree of degranulation was determined by assaying the β-hexosaminidase activity in the degranulation assay supernatant as given below. The supernatant was dispensed into a 96-well plate and 0.1M citrate (pH 4.5)/1 mM 4-methyl umbelliferyl-2-acetamido-2-deoxy-beta-D-glucopyranoside (Wako Pure Chemical) in 5-fold of the supernatant was added thereto, followed by incubation at 37° C. for an hour. […] The activity was then assayed using Fusion-α (Perkin-Elmer). The β-hexosaminidase activity was also shown by the activity in the supernatant obtained by centrifugation after freezing and thawing LAD 2 four times, which was made total β-hexosaminidase activity in LAD 2, and the degree of degranulation was shown as the percentage of the β-hexosaminidase activity in the LAD 2 supernatant based on the total β-hexosaminidase activity.

[2] = tested on: human mast cell line LAD 2; assay: Expression of TNF-α, CCL-2 or CCL-5 mRNA in LAD 2 (TaqMan PCR); type: cell-based; conditions: various TGR12 ligands experiment, 1 μM, two hours after stimulation
Procedure: Human mast cell line LAD 2 was cultured in StemPro-34 medium (Invitrogen) supplemented with 100 ng/mL of stem cell factor (Immuno-Biological Laboratories Co., Ltd.). […] A 750 μL aliquot was inoculated on a 24-well plate, which was then allowed to stand in a CO2 incubator at 37° C. for 30 minutes. […] The assay was performed for the respective reaction conditions in n=3. The plate was ice-chilled 0.5, 2, 8 and 24 hours after to stop the activation of LAD 2. After centrifugation at 300×g for 5 minutes, total RNA was extracted from the precipitated cells using RNeasy Mini Kit (Qiagen) according to the protocol attached. Further in the experiments where expression levels upon stimulation by various TGR12 ligands were analyzed, LAD 2 was centrifuged at 300×g for 5 minutes and the cells precipitated were counted and suspended in the medium at 1.33×10^6 cells/mL. A 750 μL aliquot was inoculated on a 24-well plate, which was allowed to stand in a CO2 incubator at 37° C. for 30 minutes. […] The assay was performed for the respective reaction conditions in n=3. Two hours after, the plate was ice-chilled to stop the activation of LAD 2. After centrifugation at 300×g for 5 minutes, total RNA was extracted from the precipitated cells using RNeasy Mini Kit (Qiagen) according to the protocol attached. The total RNA obtained as described above was concentrated using ethachinmate according to the protocol attached and dissolved in RNase-free H2O, Next, using the solution corresponding to […] of total RNA, reverse transcription was performed by the following procedure using SuperScript II reverse transcriptase (Invitrogen) to synthesize single stranded cDNA. To the total RNA solution, 0.1 μg of random primer (Invitrogen) and 1 μL of 10 mM dNTP (Invitrogen) were added and then RNase-free H2O was added to make the whole volume 12 μL. The mixture was then incubated at 70° C. for 10 minutes and ice-cooled for a minute. After 4 μL of 5× First-Strand Buffer (attached to SuperScript II reverse transcriptase), 2 μL of 0.1M DTT (attached to SuperScript II reverse transcriptase), 1 μL of RNaseOUT (Invitrogen) and 1 μL of SuperScript II reverse transcriptase were added, the mixture was incubated at 42° C. for 50 minutes, then at 70° C. for 15 minutes and ice-cooled for 5 minutes. The thus obtained cDNA was purified using ethachinmate in accordance with the protocol attached and dissolved in Tris-EDTA buffer (Fluka).
In TaqMan PCR below, hTNFalpha-tF (SEQ ID NO: 33) and hTNFalpha-tR (SEQ ID NO: 34) were used as primers for human TNF-α quantification, hTNFalpha-tP (SEQ ID NO: 35) as a probe and hTNFalpha-standard (SEQ ID NO: 36) as a standard. For human CCL-5 quantification, hCCL5-tF (SEQ ID NO: 37) and hCCL5-tR (SEQ ID NO: 38) were used as primers, hCCL5-tP (SEQ ID NO: 39) as a probe and hCCL5 standard (SEQ ID NO: 40) as a standard. For human CCL-2 quantification, hCCL2-tF (SEQ ID NO: 41) and hCCL2-tR (SEQ ID NO: 42) were used as primers, hCCL2-tP (SEQ ID NO: 43) as a probe and hCCL2 standard (SEQ ID NO: 44) as a standard.
TaqMan PCR was performed in n=2 for each sample in a liquid volume of 15 μl using 12.5 ng of total RNA as a template. The reaction solution was composed of 900 nM primer, 250 nM probe and ½ volume of TaqMan Universal PCR Master Mix (Applied Biosystems). The reaction and analysis were performed by ABI PRISM 7900HT Sequence Detection System (Applied Biosystems). After keeping warm at 50° C. for 2 minutes and then at 95° C. for 10 minutes, the reaction cycle was set in one cycle to include 95° C. for 15 seconds and 60° C. for 1 minute and repeating the cycle 40 times.

[3] = CHO-TGR12, 0.3 nM, highest fluorescence intensity over 3 minutes
[4] = LAD 2, read-out: EC50 in the degranulation on LAD 2

Row | Structure (SMILES) | maximum activity in the calcium increasing effect (TGR12; [3]) | maximum activity in the calcium increasing effect (TGR12; CHO-TGR12, 3 nM) | maximum activity in the calcium increasing effect (TGR12; CHO-TGR12, 30 nM) | maximum activity in the calcium increasing effect (TGR12; CHO-TGR12, 300 nM) | maximum activity in the calcium increasing effect (TGR12; CHO-TGR12, 3000 nM) | EC50 (TGR12) [nM] | stimulated degranulation (β-hexosaminidase in supernatant, % of total) ([1]; LAD 2, 10 nM) [%] | stimulated degranulation (β-hexosaminidase in supernatant, % of total) ([1]; LAD 2, 30 nM) [%] | stimulated degranulation (β-hexosaminidase in supernatant, % of total) ([1]; LAD 2, 100 nM) [%] | stimulated degranulation (β-hexosaminidase in supernatant, % of total) ([1]; LAD 2, 300 nM) [%] | stimulated degranulation (β-hexosaminidase in supernatant, % of total) ([1]; LAD 2, 1 μM) [%] | stimulated degranulation (β-hexosaminidase in supernatant, % of total) ([1]; LAD 2, 3 μM) [%] | EC50 [1, 4] [nM] | expression level of CCL-2 in LAD 2 [2] [copies] | expression level of CCL-5 in LAD 2 [2] [copies] | expression level of TNF-α in LAD 2 [2] [copies] | EC50 [1] [nM] | stimulated degranulation (β-hexosaminidase in supernatant, % of total) ([1]; LAD 2, 3 nM) [%]
1 | CC[C@H](C)[C@H](NC(=O)[C@H](CO)NC(=O)[C@H](CC(N)=O)NC(=O)[C@H](CC(C)C)NC(=O)[C@H](Cc1ccc(O)cc1)NC(=O)[C@H](CCCCN)NC(=O)[C@H](CCCCN)NC(=O)[C@@H](NC(=O)[C@H](C)NC(=O)[C@H](CCSC)NC(=O)[C@H](CCC(N)=O)NC(=O)[C@H](CCCCN)NC(=O)[C@H](CCCNC(=N)N)NC(=O)[C@H](CC(C)C)NC(=O)[C@H](CCCNC(=N)N)NC(=O)[C@@H](NC(=O)[C@H](Cc1ccc(O)cc1)NC(=O)[C@H](CC(N)=O)NC(=O)[C@H](CC(=O)O)NC(=O)[C@@H](NC(=O)[C@H](Cc1ccccc1)NC(=O)[C@@H](NC(=O)[C@H](C)NC(=O)[C@H](CC(=O)O)NC(=O)[C@H](CO)NC(=O)[C@@H](N)Cc1c[nH]cn1)C(C)C)[C@@H](C)O)[C@@H](C)O)C(C)C)C(=O)N[C@@H](CC(C)C)C(=O)N[C@@H](CC(N)=O)C(N)=O [VIP, vasoactive intestinal polypeptide] | 56 | 60 | 16 | 11153 | 24007 | ~305 | 1.5 | 4.0 | 36.7 | 63.9 | 71.7 | 76.1 | ~105 | 3630286 | 45015 | 176630 | – | –
2 | CC[C@H](C)[C@H](NC(=O)CNC(=O)[C@H](CC(=O)O)NC(=O)[C@H](CO)NC(=O)[C@@H](N)Cc1c[nH]cn1)C(=O)N[C@@H](Cc1ccccc1)C(=O)N[C@H](C(=O)N[C@@H](CC(=O)O)C(=O)N[C@@H](CO)C(=O)N[C@@H](Cc1ccc(O)cc1)C(=O)N[C@@H](CO)C(=O)N[C@@H](CCCNC(=N)N)C(=O)N[C@@H](Cc1ccc(O)cc1)C(=O)N[C@@H](CCCNC(=N)N)C(=O)N[C@@H](CCCCN)C(=O)N[C@@H](CCC(N)=O)C(=O)N[C@@H](CCSC)C(=O)N[C@@H](C)C(=O)N[C@H](C(=O)N[C@@H](CCCCN)C(=O)N[C@@H](CCCCN)C(=O)N[C@@H](Cc1ccc(O)cc1)C(=O)N[C@@H](CC(C)C)C(=O)N[C@@H](C)C(=O)N[C@@H](C)C(=O)N[C@H](C(=O)N[C@@H](CC(C)C)C(N)=O)C(C)C)C(C)C)[C@@H](C)O [PACAP-27] | 48 | 58 | 939 | 23030 | 23728 | ~93 | 2.6 | 19.6 | 59.4 | 71.1 | 75.1 | 69.1 | ~51 | 3809873 | 48242 | 219597 | – | –
3 | CC(C)C[C@H](NC(=O)[C@H](C)NC(=O)[C@H](Cc1c[nH]c2ccccc12)NC(=O)[C@H](CCCCN)NC(=O)[C@H](CC(N)=O)NC(=O)[C@H](Cc1c[nH]c2ccccc12)NC(=O)[C@H](CCCCN)NC(=O)[C@H](CCCCN)NC(=O)[C@H](CCCNC(=N)N)NC(=O)[C@@H](N)Cc1ccccc1)C(=O)N[C@@H](CO)C(=O)N[C@@H](CCCNC(=N)N)C(N)=O [PAMP-12, proadrenomedullin N-terminal 20 peptide (9-20)] | 255 | 1617 | 22291 | 24088 | 23743 | ~98 | 30.7 | 52.1 | 65.2 | 67.7 | 69.3 | – | – | 1143248 | 34566 | 8918 | ~13 | 6.3
4 | CSCC[C@H](NC(=O)[C@H](CCCNC(=N)N)NC(=O)[C@@H](N)CC(=O)O)C(=O)N1CCC[C@H]1C(=O)N[C@H]1CSSC[C@@H](C(=O)N[C@@H](CCCCN)C(=O)O)NC(=O)[C@H](CO)NC(=O)[C@H](CO)NC(=O)[C@H](Cc2ccccc2)NC(=O)[C@H]([C@@H](C)O)NC(=O)[C@H](CCCCN)NC(=O)[C@H](Cc2c[nH]c3ccccc23)NC(=O)[C@H](Cc2ccccc2)NC(=O)[C@H](Cc2ccccc2)NC(=O)[C@H](CC(N)=O)NC(=O)[C@H](CCCNC(=N)N)NC1=O [cortistatin-17] | 67 | 54 | 94 | 17914 | 23647 | – | 1.6 | 2.8 | 26.5 | 52.8 | 62.2 | 58.9 | – | 2944622 | 47322 | 163551 | – | –

Reference: patent US20100068208A1, “Degranulation inhibitor” (priority 2005, published 2010)
